In PubChem BioAssay AID1963853 (Molecular Pharmacology Branch, DTP, NCI, 2024):

Test system: 266295-075-R-J1-PDC spheroid viability
Experiment: Anticancer human tumor 266295-075-R-J1-PDC patient-derived head and neck squamous carcinoma cell line growth inhibition [POLQ]
Settings: spheroids with HUVEC and MSC; for viability, T/C: stronger effect = lower value
Description: Multicellular complex tumor spheroid response to Polymerase (POL) inhibitors (novobiocin, ART-558, RP6685) in combination with a variety of drugs and investigational agents in selected tumor cell lines
The POL inhibitors (novobiocin, ART-558, and RP6685) were evaluated both individually and in combination with standard of care and investigational anticancer small molecules within a complex spheroid model of solid tumors. . Complex spheroids include a stromal component modeled by human endothelial cells (HUVEC) and fibroblasts modeled by human mesenchymal stem cells (MSCs). The concentration ranges selected for each drug and investigational agent were based upon clinically achievable concentrations if the clinical Cmax of the agent was known.
Compounds. The drugs and investigational agents: novobiocin (NSC847541), ART-558 (NSC835418), RP-6685 (NSC848927), peposertib (NSC802822), ceralasertib (NSC780249), elimusertib (NSC800525), camonsertib (NSC841442), AZD-1390 (NSC803789), olaparib (NSC753686), talazoparib (NSC767125), rucaparib (NSC756644), sotorasib (NSC818433), MRTX-1133 (NSC836407), SN-38 (NSC673596), topotecan (NSC609699), epotoside (NSC141540), doxorubicin (NSC123127), gemcitabine (NSC613327), 5-fluorouracil (NSC19893), paclitaxel (NSC125973), vemurafenib (NSC761431), MSA-2 (NSC828583), SN-011 (NSC837082), adavosertib (NSC754352), prexasertib (NSC758257), carboplatin (NSC241240) and oxaliplatin (NSC266046), were obtained from the National Cancer Institute (NCI) Developmental Therapeutics Program Chemical Repository (21). The FDA-approved anticancer drug set is available from the Developmental Therapeutics Program at https://dtp.cancer.gov/organization/dscb/obtaining/. […] The stock solutions were prepared in dimethyl sulfoxide (DMSO, Sigma-Aldrich, St. Louis, MO, cat. D2650), except for the platinum compounds which were prepared in saline (Quality Biological, Gaithersburg, MD, cat. 114-055-101), at 800-fold the tested concentration and stored at -70 degrees C prior to their use. All drugs and investigational agents were tested over a range starting from a high concentration at or near the clinical Cmax and decreasing in half-log increments. If the clinical Cmax for an agent had not been determined, the highest concentration tested was 10 microM, except for SN-38, which was tested at a high concentration of 1 microM.
Cell Culture. All cells were maintained in an incubator at 37 degrees C and 5% CO2 with 95% humidity. The PDC lines were cultured according to standard operating procedures established by the NCI PDMR (https://pdmr.cancer.gov). Table 3 of the manuscript, lists the cell lines along with the number of the three cell types plated to form the mct-spheroids and media for tumor cell growth. After thawing, all PDC lines, except 997537-175-T-J1-PDC and 415267-285-R-J2-PDC, were cultured in Matrigel-coated flasks prepared with a working solution of 1X Ham's F-12 nutrient mix, without supplementation (Thermo Fisher Scientific, cat. 11765054), 100 U/mL penicillin-streptomycin (Thermo Fisher Scientific, cat. 15140122), and 2.5% Matrigel (Corning Inc., Corning, NY, cat. 354248) for the first three passages. The two PDC lines 997537-175-T-J1-PDC and 415267-285-R-J2-PDC were cultured on uncoated flasks. The 857933-349-R-J2-PDC line was cultured in 6C/Colon 1B media containing advanced DMEM/F-12 (Thermo Fisher Scientific, cat. 12634028), 10 mM HEPES (Thermo Fisher Scientific, cat. 15630080), 1X GlutaMAX supplement (Thermo Fisher Scientific, cat. 35050061), 0.1 mg/mL primocin (InvivoGen, San Diego, CA, cat. ant-pm-2), 10% defined fetal bovine serum, heat inactivated (HyClone Laboratories Inc., Logan, UT, cat. SH30070.03HI), 50% L-WRN conditioned media (ATCC, cat. CRL-3276), 1.25 mM N-Acetyl-L-cysteine (Sigma-Aldrich, cat. A9165), 10 mM nicotinamide (Sigma-Aldrich, cat. N0636), 1X B-27 supplement (Thermo Fisher Scientific, cat. 17504044), 1X N-2 supplement (Thermo Fisher Scientific, cat. […]

[1] = curve of first compound, second compound 0.0316 µM
[2] = curve of first compound, second compound 0.1 µM
[3] = curve of first compound, second compound 0.316 µM
[4] = curve of first compound, second compound 1 µM
[5] = curve of first compound, second compound 3.16 µM
[6] = curve of first compound, second compound 10 µM
[7] = second compound 0.0316 µM, first compound 0.0316 µM
[8] = second compound 0.0316 µM, first compound 0.1 µM
[9] = second compound 0.0316 µM, first compound 0.316 µM
[10] = second compound 0.0316 µM, first compound 1 µM
[11] = second compound 0.0316 µM, first compound 3.16 µM
[12] = second compound 0.0316 µM, first compound 10 µM
[13] = second compound 0.1 µM, first compound 0.0316 µM
[14] = second compound 0.1 µM, first compound 0.1 µM
[15] = second compound 0.1 µM, first compound 0.316 µM
[16] = second compound 0.1 µM, first compound 1 µM
[17] = second compound 0.1 µM, first compound 3.16 µM
[18] = second compound 0.1 µM, first compound 10 µM
[19] = second compound 0.316 µM, first compound 0.0316 µM
[20] = second compound 0.316 µM, first compound 0.1 µM
[21] = second compound 0.316 µM, first compound 0.316 µM
[22] = second compound 0.316 µM, first compound 1 µM
[23] = second compound 0.316 µM, first compound 3.16 µM
[24] = second compound 0.316 µM, first compound 10 µM
[25] = second compound 1 µM, first compound 0.0316 µM
[26] = second compound 1 µM, first compound 0.1 µM
[27] = second compound 1 µM, first compound 0.316 µM
[28] = second compound 1 µM, first compound 1 µM
[29] = second compound 1 µM, first compound 3.16 µM
[30] = second compound 1 µM, first compound 10 µM
[31] = second compound 3.16 µM, first compound 0.0316 µM
[32] = second compound 3.16 µM, first compound 0.1 µM
[33] = second compound 3.16 µM, first compound 0.316 µM
[34] = second compound 3.16 µM, first compound 1 µM
[35] = second compound 3.16 µM, first compound 3.16 µM
[36] = second compound 3.16 µM, first compound 10 µM
[37] = second compound 10 µM, first compound 0.0316 µM
[38] = second compound 10 µM, first compound 0.1 µM
[39] = second compound 10 µM, first compound 0.316 µM
[40] = second compound 10 µM, first compound 1 µM
[41] = second compound 10 µM, first compound 3.16 µM
[42] = second compound 10 µM, first compound 10 µM
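Also: spheroids exposed to compounds for seven days before readout.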

With `COc1cc(C2c3cc4c(cc3C(OC3OC5COC(C)OC5C(O)C3O)C3COC(=O)C23)OCO4)cc(OC)c1O` (stereo unspecified) + Cc1cccc(N(C)C(=O)C2C(O)CCN2c2nc(C)cc(C(F)(F)F)c2C#N)c1 the IC50 [1] was > 10 µM, the IC50 [2] was > 10 µM and the IC50 [3] was > 10 µM. For the same compound, the IC50 [4] was > 10 µM, the IC50 [5] was > 10 µM and the IC50 [6] was > 10 µM. It also gave a viability, T/C [7] of 83.3%, a viability, T/C [8] of 75.2% and a viability, T/C [9] of 82.2%. For the same compound, the viability, T/C [10] was 75.8%, the viability, T/C [11] was 75.3% and the viability, T/C [12] was 64.9%. The viability, T/C [13] was 78.8%, the viability, T/C [14] was 82.2% and the viability, T/C [15] was 72.5%. It also gave a viability, T/C [16] of 69.4%, a viability, T/C [17] of 70.7% and a viability, T/C [18] of 70.2%. For the same compound, the viability, T/C [19] was 96.5%, the viability, T/C [20] was 73.1% and the viability, T/C [21] was 73.9%. It also gave a viability, T/C [22] of 76.3%, a viability, T/C [23] of 73.1% and a viability, T/C [24] of 57.9%. It also gave a viability, T/C [25] of 86.1%, a viability, T/C [26] of 95.4% and a viability, T/C [27] of 82%. For the same compound, the viability, T/C [28] was 86.2%, the viability, T/C [29] was 73.4% and the viability, T/C [30] was 68.1%. For the same compound, the viability, T/C [31] was 85.8%, the viability, T/C [32] was 76.2% and the viability, T/C [33] was 77.5%. The viability, T/C [34] was 68.5%, the viability, T/C [35] was 68.1% and the viability, T/C [36] was 62.8%. For the same compound, the viability, T/C [37] was 101%, the viability, T/C [38] was 72.5% and the viability, T/C [39] was 69.2%. For the same compound, the viability, T/C [40] was 72.2%, the viability, T/C [41] was 72.5% and the viability, T/C [42] was 60%.

For `COc1cc(C2c3cc4c(cc3C(OC3OC5COC(C)OC5C(O)C3O)C3COC(=O)C23)OCO4)cc(OC)c1O` (stereo unspecified) + Nc1ccc(C#CCN(C(=O)Cc2ncc(C(F)(F)F)cc2C(F)(F)F)c2ccc(F)cc2)nn1, the IC50 [1] was > 10 µM, the IC50 [2] was > 10 µM and the IC50 [3] was > 10 µM. The IC50 [4] was > 10 µM, the IC50 [5] was > 10 µM and the IC50 [6] was > 10 µM. It also gave a viability, T/C [7] of 81.1%, a viability, T/C [8] of 103% and a viability, T/C [9] of 77.6%. The viability, T/C [10] was 94.4%, the viability, T/C [11] was 98.9% and the viability, T/C [12] was 82.8%. The viability, T/C [13] was 84.1%, the viability, T/C [14] was 97% and the viability, T/C [15] was 103%. The viability, T/C [16] was 97.4%, the viability, T/C [17] was 111% and the viability, T/C [18] was 80.1%. For the same compound, the viability, T/C [19] was 97%, the viability, T/C [20] was 127% and the viability, T/C [21] was 82.2%. The viability, T/C [22] was 90.7%, the viability, T/C [23] was 94.9% and the viability, T/C [24] was 90.6%. It also gave a viability, T/C [25] of 104%, a viability, T/C [26] of 94.1% and a viability, T/C [27] of 92.3%. It also gave a viability, T/C [28] of 96.4%, a viability, T/C [29] of 92.3% and a viability, T/C [30] of 88.8%. The viability, T/C [31] was 75.9%, the viability, T/C [32] was 118% and the viability, T/C [33] was 84.8%. For the same compound, the viability, T/C [34] was 93.2%, the viability, T/C [35] was 107% and the viability, T/C [36] was 90.5%. The viability, T/C [37] was 90.8%, the viability, T/C [38] was 92.9% and the viability, T/C [39] was 95.2%. It also gave a viability, T/C [40] of 81.2%, a viability, T/C [41] of 95.8% and a viability, T/C [42] of 77.1%.

With `Cc1cccc(N(C)C(=O)C2C(O)CCN2c2nc(C)cc(C(F)(F)F)c2C#N)c1` (stereo unspecified) the IC50 (compound alone, run of 10/31/2023) was > 10 µM and the IC50 (compound alone, run of 11/06/2023) was > 10 µM.
